Laboratory results as given in patent publication US12691114B2, “Compositions for inhibition of herpesviruses” (The Medical College of Wisconsin, Inc., priority 2020, dated 2026).

Tests used:
[1] = tested on: HCMV Towne viral proteins (IE1/2, pp65, UL84, UL44); assay: Immunoblot of viral protein expression in infected HFFs; type: cell-based, human cytomegalovirus; settings: HCMV Towne MOI of 1 PFU/cell, 72 hpi
Description: SDS-polyacrylamide gel electrophoresis and immunoblot analysis: Cell lysates containing equal amount of proteins were mixed with an equal volume of sample buffer (125 mM Tris-HCL, pH 6.8, 4% SDS, 20% glycerol and 5% β-mercaptoethanol) and boiled at 100° C. for 10 min. Denatured proteins were resolved in Tris-glycine polyacrylamide gels (8-10%) and transferred to polyvinylidine difluoride (PVDF) membranes (Bio-Rad Laboratories, Hercules, CA) by electroblotting. Membranes were incubated in blocking solution [5% w/v non-fat dry milk and 0.1% Tween-20 in PBS (PBST)] for 1 h, washed with PBST, and incubated with primary antibodies at 4° C. overnight. Membranes were washed with PBST and incubated with horseradish peroxidase-conjugated secondary antibodies in PBST for 1 h at room temperature. Following washing with PBST, protein bands were visualized by chemiluminescence using SuperSignal West Dura and Pico reagents (Pierce Chemical, Rockford, IL).
Antibodies: The following antibodies were used—Mouse monoclonal anti-HCMV IE1 & IE2 (MAB810, Millipore, Billerica, MA), mouse monoclonal anti-HCMV UL83 (pp65, Vector Laboratories Inc., Burlingame, CA), mouse monoclonal anti-HCMV UL44, mouse monoclonal anti-HCMV UL84, and mouse anti-β-actin anti-mouse IgG (Santa Cruz Biotechnology, Santa Cruz, CA). Horseradish peroxidase (HRP)-conjugated anti-mouse IgG was from GE Healthcare (Waukesha, WI). Horseradish peroxidase (RP)-conjugated anti-rabbit IgG was from Cell Signaling (Beverly, MA).

HCMV Towne = assay: Add-on and removal assays, luciferase at 72 hpi; type: cell-based, human cytomegalovirus; settings: for stage of maximal activity during HCMV replication, in words: add-on and removal assays; for add-on assay result, in words: compound added at times after infection; for add-on assay result, in words / removal assay result, in words: luciferase 72 hpi; for removal assay result, in words: compound removed at times after infection
Description: Add-on and removal assays: These assays were performed to identify at which stage during HCMV replication the compounds had maximal activity. In the add-on group, compounds were added to infected HFFs at 0, 6, 24, and 48 hpi, and luciferase activity was measured at 72 hpi. In the removal group, compounds were added immediately after virus infection and were subsequently removed after 0, 6, 24, and 48 h; luciferase was measured at 72 hpi.
Timing of HCMV inhibition: Add-on and removal assays were performed. Compounds were added or removed at 0, 6, 12, 24, 36 and 48 hpi, and luciferase activity was measured at 72 hpi.

HCMV Towne DNA = assay: Viral DNA by US17 real-time PCR in cells and supernatants; type: cell-based, human cytomegalovirus; settings: Towne MOI=0.1; NFU1827 5 μM, MLS8554 2 μM, MLS8091 1.5 μM, 2955 3 μM, GCV 5 μM
Text: DNA isolation and quantitative real-time (qPCR): Total DNA was isolated from non-infected control, and HCMV-infected HFFs using Wizard SV genomic DNA isolation kit (Promega, Madison, WI). To determine viral load in the supernatant, total DNA was isolated from supernatants using automated DNA extraction on the BioRobot M48 instrument (Qiagen, Valencia, CA). A US17 real-time PCR assay which targets 151-bp from the highly conserved US17 region of the CMV genome was used^39. The primers and probe for US17 are: […]

HCMV TB40 = assay: Plaque reduction assay, HCMV TB40 in HFFs; type: cell-based, human cytomegalovirus; settings: 10 days
Description: (§1) Plaque reduction assay: HFFs were seeded into 12-well plates (2×10^5 cells/well) and infected with HCMV TB40 at approximately 100 plaques/well. After 90 min, media were aspirated, and DMEM containing 0.5% carboxymethyl-cellulose (CMC), 4% fetal bovine serum (FBS), and drugs were added into duplicate wells. Following incubation at 37° C. for 10-12 days the overlay was removed, and plaques were counted after crystal violet staining. For HSV1 and HSV2 replication in Vero cells, the adsorption time was 60 min and plaques were counted after 36 h. Plaque assays in MEFs were completed after 3 days.
Viral protein expression was measured by Western blot.

[2] = tested on: Mouse CMV (MCMV) Smith strain; assay: Plaque assay, mouse CMV in MEFs; type: cell-based, mouse cytomegalovirus; settings: plaque reduction; for EC50: MEFs, NA = Not active
Text: (§2) Viruses and antiviral assays: A recombinant pp28-luciferase Towne HCMV strain expressing luciferase under the control of the UL99 (pp28) late promoter was reported to provide a highly-sensitive and reproducible reporter for drug screening^20. A GCV-resistant HCMV pp28-luciferase that contains a C607Y mutation in UL97 was reported^37. The HCMV TB40 strain was obtained from ATCC (VR-1578). Clinical isolates of Human Herpesvirus 1 and 2 (HSV1, HSV2) were collected from the Johns Hopkins Microbiology laboratory without identifiers that could link them to a specific patient. Mouse CMV (MCMV) Smith strain (ATCC VR-1399) was used for infection of MEFs.
as §1
(§3) Inhibition of other herpesviruses: Inhibition of herpes simplex 1 and 2 (HSV1, HSV2), Epstein Barr virus (EBV) and mouse CMV (MCMV) was tested with the five compounds. Plaque reductions assays were used for HSV1, HSV2 and MCMV. Inhibition of lytic EBV replication was measured by real-time PCR in AKATA cells following IgG induction. Only MLS8554 was active against HSV1, HSV2 and MCMV (Table 2).

HSV1 clinical isolate = assay: Plaque reduction assay, HSV1 in Vero cells; type: cell-based, Human Herpesvirus 1; settings: plaque reduction
Text: as §2, §1, §3

SMILES	viral protein expression by Western blot, in words [1]	stage of maximal activity during HCMV replication, in words (HCMV Towne)	add-on assay result, in words (HCMV Towne)	removal assay result, in words (HCMV Towne)	viral DNA replication in cells, in words (HCMV Towne DNA)	viral DNA yield in supernatant, in words (HCMV Towne DNA)	EC50 (HCMV TB40) [nM]	activity against MCMV, in words [2]	activity against HSV1, in words (HSV1 clinical isolate)	EC50 [2] [nM]	EC50 (HSV1 clinical isolate; Vero cells, NA = Not active, read-out: EC50—HSV1-C1) [nM]	EC50 (HCMV TB40; Human betaherpesvirus 5, 240 h) [nM]	EC50 ([2]; Murid betaherpesvirus 1) [nM]
Nc1c(S(=O)(=O)c2cccs2)c2nc3ccccc3nc2n1Cc1ccccc1 [MLS8091]	Inhibition of all viral proteins	early-late stage	overlapped with that of GCV	showed earlier effects	higher than that achieved with GCV	not significantly different from GCV	330	no activity	no activity				
CCc1ccc(NC(=O)[C@H](Cc2c[nH]c3ccccc23)NC(=O)[C@@H]2Cc3ccccc3CN2)cc1 [MLS8554]	reduced expression of IE2, UL44, UL84 and pp65	immediate early-early	activity was significantly reduced	near complete	reduced	reduced	340	active	active	11700 ± 2000	1780 ± 200		
CCN1CCN(CCCNC(=O)c2ccc3c(c2)sc2nc(-c4ccc(OC)cc4)cn23)CC1 [NFU1827, N-[3-(4-ethylpiperazin-1-yl)propyl]-4-(4-methoxyphenyl)-7-thia-2,5-diazatricyclo [6.4.0.02,6] dodeca-1(8),3,5,9,11-pentaene-10-carboxamide]	reduced the level of both IE1 and IE2	immediate early-early	lost its ability to inhibit HCMV	significant HCMV suppression	significantly reduced	significantly reduced		no activity	no activity			1210 ± 100	
CC(C)NC(=O)C1CCN(C(=O)c2cc3sccc3n2Cc2ccc(Cl)cc2)CC1 [NCGC2955, 1-(4-(4-chlorobenzyl)-4H-thieno[3,2-b]pyrrole-5-carbonyl)-N-isopropylpiperidine-4-carboxamide]	strong reduction in viral protein expression including IE1 and IE2	early-late stage	overlapped with GCV	longer activity than GCV	modest	modest						1180 ± 200	1000
